Assay results reported in PubChem BioAssay (NCI).
Several values for one entry are separate records, joined by “and”; a condition that tells them apart may be missing. Equal entries are not always repeated.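 Tested at 5 concentrations; 48 h exposure; 96-well plates; endpoints linearly interpolated, else capped at highest concentration. GI50 is the concentration that inhibits growth by half. TGI marks complete inhibition of growth.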

Legend:
Test in all cases: NCI tumour cell line growth inhibition, 48 h
MALME-3M melanoma = system: MALME-3M melanoma
HCT-116 colon = system: HCT-116 colon
M14 melanoma = system: M14 melanoma
LOX IMVI melanoma = system: LOX IMVI melanoma
SK-MEL-5 melanoma = system: SK-MEL-5 melanoma
RXF 393 renal = system: RXF 393 renal
SF-268 CNS = system: SF-268 CNS
SK-OV-3 ovarian = system: SK-OV-3 ovarian
HCT-15 colon = system: HCT-15 colon
SNB-19 CNS = system: SNB-19 CNS

Row | SMILES | TGI (MALME-3M melanoma) | TGI (HCT-116 colon) | TGI (M14 melanoma) | TGI (LOX IMVI melanoma) | TGI (SK-MEL-5 melanoma) | TGI (RXF 393 renal) | TGI (SF-268 CNS) | TGI (SK-OV-3 ovarian) | TGI (HCT-15 colon) | TGI (SNB-19 CNS) | GI50 (MALME-3M melanoma) | GI50 (HCT-116 colon) [µM] | GI50 (M14 melanoma) | GI50 (LOX IMVI melanoma) [µM] | GI50 (SK-MEL-5 melanoma) | GI50 (RXF 393 renal) | GI50 (SF-268 CNS) | GI50 (SK-OV-3 ovarian) | GI50 (HCT-15 colon) | GI50 (SNB-19 CNS)
1 | CCCCOC(=O)NC(=O)c1cn(CCCOC(=O)NCCCCCCNC(=O)OCCCn2cc(C(=O)NC(=O)OCCCC)c(=O)[nH]c2=O)c(=O)[nH]c1=O | > 100 µM | > 100 µM | > 100 µM | > 100 µM | > 100 µM | > 100 µM | > 100 µM | > 100 µM | > 100 µM | > 100 µM |  |  |  |  |  |  |  |  |  | 
2 | Nc1nc(SN=Nc2ccc(S(N)(=O)=O)cc2)c2[nH]cnc2n1 | > 60.6 µM | 15.1 µM | 9 µM | 12.6 µM | 5.97 µM | 5.52 µM | > 100 µM | 13.6 µM | > 100 µM | > 100 µM | 1.87 µM | 0.374 | 0.393 µM | 0.219 | 1.26 µM | 0.394 µM | 0.563 µM | 0.39 µM | 0.563 µM | > 78.6 µM
3 | CC(C)CCCC(C)[C@H]1CCC2[C@H]3C(CC[C@@]21C)[C@@]1(C)CCC=C[C@]12C[C@@H]2[C@@H]3O (some centres not stated) | > 100 µM | > 100 µM | > 100 µM | > 100 µM | > 100 µM | > 100 µM | > 100 µM | > 100 µM | > 100 µM | > 100 µM |  |  |  |  |  |  |  |  |  | 
4 | COc1cc2c(cc1O)C1Cc3ccc(OC)c(O)c3C(C2)N1C (configuration not stated) | > 100 µM | > 100 µM | > 100 µM | > 100 µM | > 100 µM | > 100 µM | > 100 µM | > 100 µM | > 100 µM | > 100 µM |  |  |  |  |  |  |  |  |  | 
5 | CN(C)C(=S)/N=c1\ss/c(=N\C(=S)N(C)C)n1-c1ccc(Cl)c(Cl)c1 | > 100 µM | > 100 µM | > 100 µM | > 100 µM | > 100 µM | > 100 µM | > 100 µM | > 100 µM | > 100 µM | > 100 µM |  |  |  |  |  |  |  |  |  | 
6 | COc1cc2c(c(OC)n1)[C@]1(O)[C@H](O)[C@H](CN(C)C)[C@@H](c3ccccc3)[C@]1(c1ccc(C#N)cc1)O2 | 0.7 µM and 0.841 µM | 2.65 µM and 1.7 µM | 0.193 µM and 0.114 µM | 0.0153 µM and 0.0133 µM | 0.0676 µM and 0.556 µM | 0.502 µM and 0.103 µM | 2.02 µM and 1.85 µM | 7.95 µM and 2.1 µM | 3.65 µM and 3.44 µM | 3.8 µM and 4.21 µM | 0.0194 µM and 0.019 µM | < 0.01 | 0.0147 µM and 0.0102 µM | < 0.01 | 0.0206 µM and 0.0196 µM | 0.0359 µM and 0.0195 µM | 0.0249 µM and 0.0148 µM | 0.0481 µM and 0.0284 µM | 0.0243 µM and 0.0197 µM | 0.0111 µM and 0.0104 µM
7 | COc1ccc2[nH]c3c4c(ccc3c2c1)C(=O)C=CC4=O | 17.4 µM | 13.9 µM | 35.2 µM | 24.1 µM | 40.1 µM | 6.88 µM | 36.1 µM | > 100 µM | 11.4 µM | > 79.1 µM |  |  |  |  |  |  |  |  |  | 
8 | COc1cc2ccc3c4cc(OC)c(OC(C)C)cc4cnc3c2cc1OC | > 100 µM | > 100 µM | > 100 µM | > 100 µM | > 100 µM | > 100 µM | > 100 µM | > 100 µM | > 100 µM | > 100 µM |  |  |  |  |  |  |  |  |  | 
9 | CC1=NN(C(=O)CC(=O)N(C(=O)c2ccccc2Cl)c2ccc(C)cc2)C(=O)C1N=Nc1ccc([N+](=O)[O-])cc1 (configuration not stated) | > 100 µM | 38.6 µM | > 100 µM | > 57.4 µM | > 100 µM | 77.5 µM | > 100 µM | 69.6 µM | > 63.5 µM | > 100 µM |  |  |  |  |  |  |  |  |  | 
10 | CCOC(=O)CNC(=O)c1ccccc1Nc1ccnc(C(F)(F)F)c1 | > 88.8 µM | > 69.8 µM | > 74.9 µM | 36.2 µM | 40.4 µM | > 64.4 µM | > 71.6 µM | > 100 µM | > 100 µM | > 100 µM | 34.1 µM | 30.5 | 38.1 µM | 17.5 | 14.8 µM | 31.3 µM | 35.7 µM | > 59.5 µM | > 54.6 µM | 34.2 µM
11 | C[C@@]12CCCc3coc(c31)C(=O)c1cc3c(cc12)C(=O)C=CC3=O | > 1 µM | > 1 µM | > 1 µM and 29.7 µM | > 1 µM and 35.1 µM | > 1 µM and 30.9 µM | > 1 µM and 29.1 µM | > 1 µM | > 100 µM | > 1 µM and 36.7 µM | > 100 µM |  |  | > 1 µM | > 1 | > 1 µM | > 1 µM |  | > 100 µM | > 1 µM | > 1 µM
12 | NC(CS/C(Cl)=C/Cl)C(=O)O (configuration not stated) | > 100 µM | > 100 µM | > 68.3 µM | 4.34 µM | 12.9 µM | > 87.2 µM | > 100 µM | > 100 µM | > 100 µM | > 100 µM | 62.4 µM | 34.6 | 8.19 µM | 1.02 | 3.11 µM | > 44.6 µM | > 76.5 µM | > 100 µM | 28.7 µM | 30.7 µM
